Measured values as given in patent US6448052B2, “Carbonyl reductase enzyme and methods for its use” (Kaneka Corporation, priority 1997, dated 2002).

Tests used:
CRD enzyme [1] = assay: Effect of metal ions and inhibitors on CRD enzyme activity, ethyl 4-chloroacetoacetate as substrate; format: biochemical, Candida magnoliae IFO 0705
CRD enzyme [2] = assay: Substrate specificity of the purified CRD enzyme (decrease in NADPH absorption at 340 nm); format: biochemical, Candida magnoliae IFO 0705; settings: for Relative activity (%): Substrate 0.2 mM, 0.32 mM NADPH, 200 mM phosphate buffer pH 7.0, 30° C., ethyl 4-chloroacetoacetate = 100; for substrate specificity (activity of the enzyme to the substrate, in words): NADPH as coenzyme
Protocol: First, the above yeast is cultured in an appropriate medium, and microbe bodies are collected from the resultant culture by centrifugation. The microbe bodies are destroyed by Dyno mill (manufactured by Dyno-Mill), for example, and centrifuged to remove cell debris and thus obtain a cell-free extract. The cell-free extract is then subjected to a processing, such as salting-out (e.g., ammonium sulfate precipitation and sodium phosphate precipitation), solvent precipitation (a protein fractionation precipitation method using acetone, ethanol, or the like), dialysis, gel filtration, ion exchange, column chromatography such as a reverse phase chromatography, and ultrafiltration, alone or in combination, to purify the enzyme. The CRD enzyme activity can be determined by measuring a reduction in the absorption at 340 nm at 30° C., for a 100 mM phosphate buffer (pH 6.5) with 1 mM ethyl 4-chloroacetoacetate as a substrate, 0.1 mM NADPH as a coenzyme, and the enzyme added thereto, or a 200 mM phosphate buffer (pH 7.0) with 0.2 mM ethyl 4-chloroacetoacetate as a substrate and 0.32 mM NADPH as a coenzyme added thereto. Under these reaction conditions, oxidation of 1 μmol NADPH into NADP in one minute is defined as one unit of enzymatic activity.
The enzyme activity was determined by, basically, allowing 3 ml of a reaction solution including 0.2 mM ethyl 4-chloroacetoacetate as a substrate, 0.32 mM NADPH as a coenzyme, and 0.1 ml of an enzyme solution in a 200 mM phosphate buffer (pH 7.0) to react at 30° C. for one minute and measuring a reduction in the absorption at 340 nm.
The enzyme according to the present invention was reacted using various carbonyl compounds shown in Table 1 below as a substrate under the same conditions as those used for ethyl 4-chloroacetoacetate.

CRD enzyme [3] = assay: Organic solvent resistance of the CRD enzyme; format: biochemical, Candida magnoliae IFO 0705; settings: equivalent amount of solvent added to phosphate buffer (pH 7.0), shaken at 28° C. for 30 minutes
[4] = format: physicochemical, Candida magnoliae IFO 0705; settings: 0.5 h, pH 7
Protocol: The expression that an enzyme is “stable” as used herein means that after being processed at pH 7.0 at 40° C. for 30 minutes the enzyme sustains an activity of 90% or more of that before the processing.
After the enzyme according to the present invention was treated at pH 7.0at 40° C. for 30 minutes, the activity of the enzyme was measured using ethyl 4-chloroacetoacetate as a substrate. As a result, the activity of 90% of that before the treatment remained.

[5] = Concentration of addition 0.1 mM, non-added = 100
[6] = Concentration of addition 1 mM, non-added = 100

In the case of `O=[N+]([O-])c1ccc(O)c([N+](=O)[O-])c1` [2,4-dinitrophenol], the “Relative activity (%)” value (CRD enzyme [1]; [5]) is reported as 86%.

For `O=Cc1ccccc1` [Benzaldehyde], the “Relative activity (%)” value (CRD enzyme [2]) was 0%.

In the case of `CC12CCC(C(=O)C1=O)C2(C)C` (stereo not shown) [Camphor quinone], the “Relative activity (%)” value (CRD enzyme [2]) is reported as 0%.

With `[Cl][Cd][Cl]` [CdCl2] the “Relative activity (%)” value (CRD enzyme [1]; [6]) was 91%.

For `O=CCCl` [Chloroacetoaldehyde], the “Relative activity (%)” value (CRD enzyme [2]) was 0%.

For `[Cl-].[Cl-].[Co+2]` [CoCl2], the “Relative activity (%)” value (CRD enzyme [1]) was 89%.

In the case of `O=S(=O)([O-])[O-].[Cu+2]` [CuSO4], the “Relative activity (%)” value (CRD enzyme [1]; [6]) is reported as 85%.

For `O=C(O)c1cc(SSc2ccc([N+](=O)[O-])c(C(=O)O)c2)ccc1[N+](=O)[O-]` [DTNB], the “Relative activity (%)” value (CRD enzyme [1]; Concentration of addition 0.05 mM, non-added = 100) was 100%.

For `CC(=O)C(C)=O` [Diacetyl], the “Relative activity (%)” value (CRD enzyme [2]) was 19%.

In the case of `O=c1oc2ccccc2c(O)c1Cc1c(O)c2ccccc2oc1=O` [Dicoumarol], the “Relative activity (%)” value (CRD enzyme [1]; [5]) is reported as 97%.

For `O=C(O)CN(CCN(CC(=O)O)CC(=O)O)CC(=O)O` [EDTA], the “Relative activity (%)” value (CRD enzyme [1]; [6]) was 95%.

In the case of `CCOC(=O)CC(C)=O` [Ethyl acetoacetate], the “substrate specificity (activity of the enzyme to the substrate, in words)” value (CRD enzyme [2]) is reported as “substantially no activity” and the “Relative activity (%)” value (CRD enzyme [2]) is reported as 0%.

In the case of `O=CC=O` [Glyoxal], the “Relative activity (%)” value (CRD enzyme [2]) is reported as 0%.

In the case of `[Cl][Hg][Cl]` [HgCl2], the “inhibitor (enzyme inhibited, in words)” value (CRD enzyme [1]) is reported as “inhibited” and the “Relative activity (%)” value (CRD enzyme [1]; [5]) is reported as 49%.

With `O=C(O)CI` [Iodoacetic acid] the “Relative activity (%)” value (CRD enzyme [1]) was 100%.

In the case of `CC(=O)C=O` [Methyl glyoxal], the “Relative activity (%)” value (CRD enzyme [2]) is reported as 0%.

In the case of `[Cl-].[Cl-].[Mg+2]` [MgCl2], the “Relative activity (%)” value (CRD enzyme [1]; [6]) is reported as 83%.

For `CCN1C(=O)C=CC1=O` [NEM], the “Relative activity (%)” value (CRD enzyme [1]; [6]) was 105%.

In the case of `O=Cc1cccnc1` [Nicotinaldehyde], the “Relative activity (%)” value (CRD enzyme [2]) is reported as 0%.

For `O=S(=O)(F)Cc1ccccc1` [PMSF], the “Relative activity (%)” value (CRD enzyme [1]; [6]) was 93%.

In the case of `[Cl][Pb][Cl]` [PbCl2], the “Relative activity (%)” value (CRD enzyme [1]; [6]) is reported as 86%.

For `NNc1ccccc1` [Phenylhydrazine], the “Relative activity (%)” value (CRD enzyme [1]; [6]) was 97%.

For `O=c1c(O)c(-c2ccc(O)c(O)c2)oc2cc(O)cc(O)c12` [Quercetin], the “inhibitor (enzyme inhibited, in words)” value (CRD enzyme [1]) was “inhibited”, the “Relative activity (%)” value (CRD enzyme [1]; Concentration of addition 0.01 mM, non-added = 100) was 84% and the “Relative activity (%)” value (CRD enzyme [1]; [5]) was 0%.

In the case of `[Cl][Sn][Cl]` [SnCl2], the “Relative activity (%)” value (CRD enzyme [1]; [6]) is reported as 77%.

In the case of `O=S(=O)([O-])[O-].[Zn+2]` [ZnSO4], the “Relative activity (%)” value (CRD enzyme [1]; [6]) is reported as 97%.

For `CCCCOC(C)=O` [butyl acetate], the “residual activity of the enzyme in the aqueous phase” value (CRD enzyme [3]) was 85%.

For `CCOC(=O)C(Cl)C(C)=O` (stereo not shown) [ethyl 2-chloroacetoacetate], the “Relative activity (%)” value (CRD enzyme [2]) was 95%.

In the case of `CCOC(=O)CC(=O)CCl` [ethyl 4-chloroacetoacetate], the “substrate specificity (activity of the enzyme to the substrate, in words)” value (CRD enzyme [2]) is reported as “strong activity” and the “Relative activity (%)” value (CRD enzyme [2]) is reported as 100%.

In the case of `CCOC(C)=O` [ethyl acetate], the “residual activity of the enzyme in the aqueous phase” value (CRD enzyme [3]) is reported as 72%.

For `O=Cc1ccncc1` [isonicotinaldehyde], the “Relative activity (%)” value (CRD enzyme [2]) was 0%.

In the case of `O=Cc1cccc(Cl)c1` [m-chlorobenzaldehyde], the “Relative activity (%)” value (CRD enzyme [2]) is reported as 0%.

With `O=Cc1cccc([N+](=O)[O-])c1` [m-nitrobenzaldehyde] the “Relative activity (%)” value (CRD enzyme [2]) was 0%.

In the case of `COC(=O)C(Cl)C(C)=O` (stereo not shown) [methyl 2-chloroacetoacetate], the “Relative activity (%)” value (CRD enzyme [2]) is reported as 11%.

In the case of `COC(=O)CC(=O)CCl` [methyl 4-chloroacetoacetate], the “Relative activity (%)” value (CRD enzyme [2]) is reported as 11%.

In the case of `O=Cc1ccccc1Cl` [o-chlorobenzaldehyde], the “Relative activity (%)” value (CRD enzyme [2]) is reported as 0%.

In the case of `O=Cc1ccccc1[N+](=O)[O-]` [o-nitrobenzaldehyde], the “Relative activity (%)” value (CRD enzyme [2]) is reported as 0%.

With `CCCCCCCCOC(=O)CC(=O)CCl` [octyl 4-chloroacetoacetate] the “Relative activity (%)” value (CRD enzyme [2]) was 36%.

With `O=C(O)c1cc[c]([Hg][Cl])cc1` [p-CMB] the “Relative activity (%)” value (CRD enzyme [1]; [6]) was 88%.

In the case of `O=Cc1ccc(Cl)cc1` [p-chlorobenzaldehyde], the “Relative activity (%)” value (CRD enzyme [2]) is reported as 0%.

For `O=Cc1ccc([N+](=O)[O-])cc1` [p-nitrobenzaldehyde], the “Relative activity (%)” value (CRD enzyme [2]) was 0%.

B1: CRD enzyme: carbonyl reductase purified from Candida magnoliae IFO 0705, amino acid sequence SEQ ID NO:1 (protein, listed as Candida magnoliae)
chain: MAKNFSNVEYPAPPPAHTKNESLQVLDLFKLNGKVASITGSSSGIGYALAEAFAQVGADVAIWYNSHDATGKAEALAKKYGVKVKAYKANVSSSDAVKQTIEQQIKDFGHLDIVVANAGIPWTKGAYIDQDDDKHFDQVVDVDLKGVGYVAKHAGRHFRERFEKEGKKGALVFTASMSGHIVNVPQFQATYNAAKAGVRHFAKSLAVEFAPFARVNSVSPGYINTEISDFVPQETQNKWWSLVPLGRGGETAELVGAYLFLASDAGSYATGTDIIVDGGYTLP
In the case of B1, the “heat stability: activity remaining relative to before the treatment” value [4] is reported as 90%.
